Assay [1] concerns the target T1, human GR (Homo sapiens, UniProt P04150).
T1 construct: U937 cells contain an endogenous glucocorticoid receptor (GR); endogenous in cells; host or cells: U937 cells stably transfected with the TNF-alpha promoter/beta-lactamase reporter
T1 sequence (P04150 1-777): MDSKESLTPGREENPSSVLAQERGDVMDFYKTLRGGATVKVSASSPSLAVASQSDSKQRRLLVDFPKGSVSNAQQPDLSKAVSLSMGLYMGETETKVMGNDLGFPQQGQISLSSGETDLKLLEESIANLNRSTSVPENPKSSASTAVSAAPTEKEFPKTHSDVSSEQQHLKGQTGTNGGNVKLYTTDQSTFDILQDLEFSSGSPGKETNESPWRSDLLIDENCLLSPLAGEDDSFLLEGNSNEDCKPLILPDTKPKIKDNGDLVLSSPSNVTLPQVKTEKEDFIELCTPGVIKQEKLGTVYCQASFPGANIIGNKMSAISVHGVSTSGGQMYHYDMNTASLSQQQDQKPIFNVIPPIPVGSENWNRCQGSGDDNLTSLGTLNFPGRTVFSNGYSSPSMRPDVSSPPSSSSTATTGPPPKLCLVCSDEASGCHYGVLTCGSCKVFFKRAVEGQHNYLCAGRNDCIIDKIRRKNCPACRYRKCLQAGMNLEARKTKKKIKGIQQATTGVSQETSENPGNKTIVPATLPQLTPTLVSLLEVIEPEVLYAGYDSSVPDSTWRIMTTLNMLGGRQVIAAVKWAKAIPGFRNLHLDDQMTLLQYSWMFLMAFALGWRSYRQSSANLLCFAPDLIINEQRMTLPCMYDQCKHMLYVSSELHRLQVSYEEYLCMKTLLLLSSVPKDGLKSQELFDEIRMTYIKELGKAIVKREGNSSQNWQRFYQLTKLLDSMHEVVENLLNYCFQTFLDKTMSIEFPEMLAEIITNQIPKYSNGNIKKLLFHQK
As to the kind of experiment: Transrepression Assay (GITAR), TNFα-β-lactamase reporter gene in U937 cells. The format is cell-based. The following applies: for GITAR Greater than by GRAMMER % SEP: GITAR Emax minus GRAMMER Emax; for EC50: inflection point, read-out: Transrepression U937 Cells GITAR IP; for EC50 / Transrepression U937 Cells GITAR Emax: U937 cells. In short, it runs like this:
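Repression of PMA (5 ng/ml final)/LPS (100 ng/ml final)-induced TNF-α promoter activity, read as β-lactamase cleavage of CCF2-AM, in stably transfected U937 cells expressing native GR. Compound added 30-45 min before stimulation, overnight (~18 hr) 37° C; normalized to 100 nM dexamethasone (100%).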

Assay [2] concerns the target T2, Glucocorticoid Receptor (Homo sapiens, UniProt P04150).
T2 construct: These cells express large amount of the GR and are very responsive to GC treatment; endogenous in cells; host or cells: A549 cells transiently transfected with the MMTV-LUC reporter
T2 sequence (P04150 1-777): T1 sequence (P04150 1-777)
Kind of assay: Trans-Activation Modulation of Glucocorticoid Receptor (GRAMMER), MMTV-LUC reporter gene in A549 cells. The class given is cell-based. As to conditions: Table 1; for Transactivation A549 Cells GRAMMER Emax / Emax: Emax relative to 300 nM dexamethasone; for EC50: inflection point, read-out: Transactivation A549 Cells GRAMMER IP; for Transactivation A549 Cells GRAMMER Emax / EC50: A549 cells; for Emax: A549, A549 cells, read-out: Transactivation A549 Cells GRAMMER Emax. In short, it runs like this: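 Luciferase from a transiently transfected MMTV-LUC reporter was measured after 24 h compound exposure (≤1% DMSO) in A549 or MDA-MB-453 cells. For antagonism, the decrease of 10 nM dexamethasone-induced signal was calculated. For agonism, Emax was referenced to 300 nM dexamethasone.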

The target of assay [3] is T3, glucocorticoid receptor (GR) (Homo sapiens, UniProt P04150).
T3 sequence (P04150 1-777): T1 sequence (P04150 1-777)
Kind of assay: Ligand binding assay (GR BIND), 3H-dexamethasone displacement in MDA-MB-453 cell lysate. The following applies: GR BIND Ki, Table 1.

[4] abbreviates: U-937, U937 cells, activity repressed by 100 nM dexamethasone = 100%, Table 1, read-out: Transrepression U937 Cells GITAR Emax.
Where [5] appears, read: U-937, text statement, 100 nM dexamethasone = 100%, read-out: maximal activity in the transrepression assay (GITAR).
Where [6] appears, read: activity repressed by 100 nM dexamethasone = 100%, Table 1.

Data on 12 compounds can be found in US8338472B2, “Hexahydrocyclopentyl[F]indazole carboxamides and derivatives thereof as selective glucocorticoid receptor modulators” (Merck Sharp & Dohme Corp., priority 2008, dated 2012).

Like-named read-outs stand apart in the source and are kept apart here. Bounds are passed on as bounds.

The Ki is the equilibrium dissociation constant of an inhibitor or competing ligand from its target. A high value points to a looser hold on the target. As to `CN(CC(O)C(F)(F)F)C(=O)[C@H]1CCC2=Cc3c(cnn3-c3ccccc3)C[C@@]21C` (stereo partly drawn) [Compound 74, (4αR,5S)-N,4α-dimethy1-1-phenyl-N-(3,3,3-trifluoro-2-hydroxypropyl)-1,4,4α,5,6,7-hexahydrocyclopenta[f]indazole-5-carboxamide], the “GITAR Greater than by GRAMMER % SEP” value in assay [1] (Table 1) came out at 35.1%. The Emax was 73.9% in assay [1] (setting [4]) and greater than 5% in assay [1] (setting [5]). The EC50 was 381 nM in assay [1] (Table 1) and 276 nM in assay [2]. Besides, the “Transactivation A549 Cells GRAMMER Emax” value in assay [2] is listed as 38.8%. Moreover, in assay [3], the affinity corresponds to a Ki of 10.6 nM.
As for `CN(CC(O)C(F)(F)F)C(=O)[C@H]1CCC2=Cc3c(cnn3-c3ccccc3)C[C@@]21C` (stereo partly drawn) [Compound 75, (4αR,5S)-N,4α-dimethyl-1-phenyl-N-(3,3,3-trifluoro-2-hydroxypropyl)-1,4,4α,5 ,6,7-hexahydrocyclopenta[f]indazole-5-carboxamide], in assay [1] (Table 1), the “GITAR Greater than by GRAMMER % SEP” value was 18.9% and the EC50 was determined as 181 nM. Moreover, the “Transrepression U937 Cells GITAR Emax” value in assay [1] (setting [6]) was 84.0%. In addition, in assay [2], the “Transactivation A549 Cells GRAMMER Emax” value was 65.2% and the EC50 turned out to be 164 nM. Besides, the Ki in assay [3] stood at 7.6 nM.
As for `CCN(CC(O)C(F)(F)F)C(=O)[C@H]1CCC2=Cc3c(cnn3-c3ccccc3)C[C@@]21C` (stereo partly drawn) [Compound 76, (4αR,5S)-N-ethyl-4α-methyl-1-phenyl-N-(3,3,3-trifluoro-2-hydroxypropyl)-1,4,4α,5,6,7-hexahydrocyclopenta[f]indazole-5-carboxamide], the “GITAR Greater than by GRAMMER % SEP” value in assay [1] (Table 1) is recorded as 6.1%. For the same compound, the results for the Emax in assay [1] (setting [4]), in assay [1] (setting [5]) and in assay [2] were 84.3%, greater than 5% and 78.2%, respectively. Further, the EC50 in assay [1] (Table 1) amounted to 225 nM; in assay [2], 314 nM. This compound yielded a Ki in assay [3] of 4.2 nM.
As to `CCN(CC(O)C(F)(F)F)C(=O)[C@H]1CCC2=Cc3c(cnn3-c3ccccc3)C[C@@]21C` (stereo partly drawn) [Compound 77, (4αR,5S)-N-ethyl-4α-methyl-1-phenyl-N-(3,3,3-trifluoro-2-hydroxypropyl)-1,4,4α,5,6,7-hexahydrocyclopenta[f]indazole-5-carboxamide], in assay [1] (Table 1), the “GITAR Greater than by GRAMMER % SEP” value was found to be 10.2% and the EC50 is 266 nM. Besides, the “Transrepression U937 Cells GITAR Emax” value in assay [1] (setting [6]) is recorded as 78.0%. Also, in assay [2], the “Transactivation A549 Cells GRAMMER Emax” value is 67.8% and the EC50 is 304 nM. For the same compound, in assay [3], the Ki is 9.8 nM.
On to `CCCN(CC(O)C(F)(F)F)C(=O)[C@H]1CCC2=Cc3c(cnn3-c3ccccc3)C[C@@]21C` (stereo partly drawn) [Compound 78, (4αR,5S)-4α-methyl-1-phenyl-N-propyl-N-(3,3,3-trifluoro-2-hydroxypropyl)-1,4,4α,5,6,7-hexahydrocyclopenta[f]indazole-5-carboxamide], for which the “GITAR Greater than by GRAMMER % SEP” value in assay [1] (Table 1) came out at 21.0%. Further, the Emax is 86% in assay [1] (setting [4]), greater than 5% in assay [1] (setting [5]) and 65% in assay [2]. For the same compound, the EC50 was 179 nM in assay [1] (Table 1) and 165 nM in assay [2]. Besides, the Ki in assay [3] came out at 2.7 nM.
Turning to `CCCCN(CC(O)C(F)(F)F)C(=O)[C@H]1CCC2=Cc3c(cnn3-c3ccccc3)C[C@@]21C` (stereo partly drawn) [Compound 79, (4αR,5S)-N-butyl-4α-methyl-1-phenyl-N-(3,3,3-trifluoro-2-hydroxypropyl)-1,4,4α,5,6,7-hexahydrocyclopenta[f]indazole-5-carboxamide], in assay [1] (Table 1), the “GITAR Greater than by GRAMMER % SEP” value was 17.6%. In addition, the Emax was 88.3% in assay [1] (setting [4]), greater than 5% in assay [1] (setting [5]) and 70.7% in assay [2]. In addition, the results for the EC50 in assay [1] (Table 1) and in assay [2] were 163 nM and 180 nM, respectively. In addition, the affinity in assay [3] corresponds to a Ki of 3.8 nM.
With `CC(C)CN(CC(O)C(F)(F)F)C(=O)[C@H]1CCC2=Cc3c(cnn3-c3ccccc3)C[C@@]21C` (stereo partly drawn) [Compound 80, (4αR,5S)-N-isobutyl-4a-methyl-1-phenyl-N-(3,3,3-trifluoro-2-hydroxypropyl)-1,4,4α,5,6,7-hexahydrocyclopenta[f]indazole-5-carboxamide], the “GITAR Greater than by GRAMMER % SEP” value in assay [1] (Table 1) was found to be 12.8%. In addition, the Emax in assay [1] (setting [4]) was 83.2%; in assay [1] (setting [5]), greater than 5%; in assay [2], 70.5%. The EC50 worked out at 337 nM in assay [1] (Table 1) and 222 nM in assay [2]. The Ki in assay [3] is 3.7 nM.
`C[C@]12Cc3cnn(-c4ccccc4)c3C=C1CC[C@@H]2C(=O)N(CC1CC1)CC(O)C(F)(F)F` (stereo partly drawn) [Compound 81, (4αR,5S)-N-(cyclopropylmethyl)-4α-methyl-1-phenyl-N-(3,3,3-trifluoro-2-hydroxypropyl)-1,4,4α,5,6,7-hexahydrocyclopenta[f]indazole-5-carboxamide]: in assay [1] (Table 1), the “GITAR Greater than by GRAMMER % SEP” value was determined as 7.8%. Further, the Emax in assay [1] (setting [4]) is 75.6%; in assay [1] (setting [5]), greater than 5%; in assay [2] it was 67.8%. In addition, the EC50 in assay [1] (Table 1) is 337 nM; in assay [2] it was 293 nM. In assay [3], this compound yielded a Ki of 3.6 nM.
Regarding `Cc1ccc(CCN(CC(O)C(F)(F)F)C(=O)[C@H]2CCC3=Cc4c(cnn4-c4ccc(F)cc4)C[C@@]32C)cc1` (stereo partly drawn) [Compound 82, (4αR,5S)-1-(4-fluorophenyl)-4α-methyl-N-[2-(4-methylphenyl)ethyl]-N-(3,3,3-trifluoro-2-hydroxypropyl)-1,4,4α,5,6,7-hexahydrocyclopenta[f]indazole-5-carboxamide], in assay [1] (Table 1), the “GITAR Greater than by GRAMMER % SEP” value is on record as 32.8%. Also, the figures for the Emax in assay [1] (setting [4]), in assay [1] (setting [5]) and in assay [2] were 43.1%, greater than 5% and 10.3%, respectively. Further, the EC50 in assay [1] (Table 1) was found to be 362 nM; in assay [2], 274 nM. The compound further registered an inhibition constant Ki in assay [3] of 0.9 nM.
In the case of `COc1ccccc1CCN(CC(O)C(F)(F)F)C(=O)[C@H]1CCC2=Cc3c(cnn3-c3ccc(F)cc3)C[C@@]21C` (stereo partly drawn) [Compound 83, (4αR,5S)-1-(4-fluorophenyl)-N-[2-(2-methoxyphenyl)ethyl] -4α-methyl-N-(3,3,3-trifluoro-2-hydroxypropyl)-1,4,4α,5,6,7-hexahydrocyclopenta[f]indazole-5-carboxamide], the “GITAR Greater than by GRAMMER % SEP” value in assay [1] (Table 1) was found to be 35.3%. The figures for the Emax in assay [1] (setting [4]), in assay [1] (setting [5]) and in assay [2] were 56.9%, greater than 5% and 21.6%, respectively. In addition, the EC50 in assay [1] (Table 1) came out at 293 nM; in assay [2], 366 nM. This compound also registered a Ki in assay [3] of 2.2 nM.
Take `C[C@]12Cc3cnn(-c4ccc(F)cc4)c3C=C1CC[C@@H]2C(=O)N(CCc1ccccc1F)CC(O)C(F)(F)F` (stereo partly drawn) [Compound 84, (4αR,5S)-1-(4-fluorophenyl)-N-[2(2-fluorophenyl)ethyl]-4α-methyl-N-(3,3,3-trifluoro-2-hydroxypropyl)-1,4,4α,5,6,7-hexahydrocyclopenta[f]indazole-5-carboxamide]: in assay [1] (Table 1), the “GITAR Greater than by GRAMMER % SEP” value came to 25.7% and the EC50 amounted to 191 nM. The “Transrepression U937 Cells GITAR Emax” value in assay [1] (setting [6]) came to 69.4%. For the same compound, in assay [1] (setting [5]), the Emax is greater than 5%. In assay [2], the “Transactivation A549 Cells GRAMMER Emax” value was 43.7% and the EC50 was 188 nM. The same compound returned an inhibition constant Ki in assay [3] of 0.8 nM.
For `Cc1ccc(CCN(CC(O)CC(F)(F)F)C(=O)[C@H]2CCC3=Cc4c(cnn4-c4ccc(F)cc4)C[C@@]32C)cc1` (stereo partly drawn) [Compound 85, (4αR,5S)-1-(4-fluorophenyl)-4α-methyl-N-[2-(4-methylphenyl)ethyl]-N-(4,4,4-trifluoro-2-hydroxybutyl)-1,4,4α,5,6,7-hexahydrocyclopenta[f]indazole-5-carboxamide], in assay [1] (Table 1), the “GITAR Greater than by GRAMMER % SEP” value was 31.1%. Further, the Emax in assay [1] (setting [4]) was 45.3%; in assay [1] (setting [5]), greater than 5%; in assay [2], 14.2%. Also, the EC50 is 818 nM in assay [1] (Table 1) and 399 nM in assay [2]. The compound also registered a Ki in assay [3] of 3.5 nM.
